Test results taken from patent US9549912B2, “Methods for treating atrial fibrillation” (Armetheon, Inc., priority 2009, dated 2017).
Entries after “also recorded” stand apart in the source; their conditions may differ.

What was measured:
[1] = Trough plasma concentrations of ATI-2042 and metabolites (Example 1); type: in vivo, human
Experimental: Patients were enrolled within 8 weeks of screening. During the study, they were reviewed on days 1, 2, and 8 of each study period. ATI-2042 was increased on day 1 of each 2-week study period, following routine bloods for haematology, biochemistry, and coagulation screens. Plasma samples for pharmacokinetic analysis of ATI-2042 and its metabolites were taken at steady state at the end of each study period just prior to the first escalated dose of the subsequent period and within 15 min prior to the pre-dose ECG for that dose.
Trough concentrations of ATI-2042 and its metabolites (ATI-2000, ATI-2100, and ATI-2142), measured at pre-dose on day 1 of each of the four treatment periods and on days 1 and 8 of the washout period, were summarized by time point. Spearman's rank correlation was used to examine the relationship between trough concentrations of ATI-2042 and AFB.

[2] = system: patients with paroxysmal atrial fibrillation (PAF); assay: Randomized, double-blind, placebo-controlled study of budiodarone in PAF patients with pacemakers: AT/AF burden, episodes, NSR, GCI (Example 2); type: in vivo, human
Excerpt: The objective of the study is to determine the efficacy of budiodarone in reducing atrial tachyarrhythmia (AT/AF) burden in patients with paroxysmal atrial fibrillation (PAF) compared to placebo, for 12 weeks of treatment, and the safety and tolerability of budiodarone for up to 12 weeks of treatment.
Secondary: to study the effect of budiodarone versus placebo on the number and duration of AT/AF episodes, duration of normal sinus rhythm (NSR) between episodes of AT/AF and on symptoms associated with PAF.
Example 2 describes a multicenter, multinational, randomized, double-blind, placebo-controlled, parallel-group study of the efficacy and safety of budiodarone in patients with PAF. Planned enrollment was up to 140 patients (with eventually 110 enrolled) with proven PAF who had permanently implanted pacemakers with appropriate AT/AF diagnostic and recording capabilities. Potential study participants underwent screening assessments, including the optimization of pacemaker programming for accurate AT/AF detection. Within 30 days after screening assessments began, eligible patients entered a 4-week baseline period (Period 1) when baseline atrial fibrillation burden (AFB) was established followed by randomization to one of three active treatment regimens or placebo for a 12-week treatment period (Period 2), followed by a 4-week washout period (Period 3). During the treatment period, patients received twice-daily (BID) oral doses of 200 mg ATI-2042, 400 mg ATI-2042, 600 mg ATI-2042, or placebo. No study drug was given during the baseline and washout periods.
To be randomized, study participant must have had: an AT/AF burden between 5% and 70% during the baseline period; no evidence of persistent AF (i.e., 7 or more consecutive days of AT/AF with episodes lasting >23 hours); able to have pacemaker atrial antitachyarrhythmia treatment algorithms turned off for the remaining duration of the study.
Efficacy outcome measures were AT/AF burden (total time spent in AT/AF as a percentage of total observation time), number and mean duration of AT/AF episodes, mean duration of NSR, patient global clinical impression (GCI) questionnaire, and University of Toronto Atrial Fibrillation Severity Scale (AFSS).
Statistical methods for efficacy: The primary efficacy analysis was the percent change in the AT/AF burden from baseline to the 12-week treatment period. Pairwise comparisons between each ATI-2042 dose group and the placebo group were performed using the Wilcoxon rank sum test. The primary analysis was based on the mITT population.
For all variables based on the pacemaker data, the Wilcoxon rank sum test was used to compare each ATI-2042 dose group to the placebo group. The Jonckheere-Terpstra test was used to test for a dose response. The Wilcoxon signed rank test was used to test for a significant change from baseline within each treatment group. An analysis of covariance (ANCOVA) was used to compare the percent change from baseline in AT/AF burden among the treatment groups after adjusting for the baseline AT/AF burden. The ANCOVA model contained effects for treatment group and baseline AT/AF burden.
For patient […], the Cochran-Mantel-Haenszel test was used to compare each ATI-2042 dose group to the placebo group. The Jonckheere-Terpstra test was used to test for a dose response.

[3] = Safety and tolerability (Example 2); type: in vivo, human
Excerpt: Safety: treatment-emergent adverse event (TEAE) type, severity, and incidence; clinical laboratory assessments, including thyroid function and testicular function (males); coagulation tests; vital signs; physical examinations; ECGs; eye examinations; chest X-rays; and pulmonary function tests.
Statistical methods for safety: Adverse events (AEs) were summarized by system organ class and preferred term. Laboratory parameters and vital signs were summarized by descriptive statistics and shift tables were also created for laboratory parameters. The percent of patients with physical examination findings that changed over the study, with ECG abnormalities by visit, and with corneal deposits were summarized. Chest X-rays and pulmonary function test results were provided in listings.

[4] = biological target: cytochrome P450 2C9 (CYP2C9) (Homo sapiens, UniProt P11712); assay: CYP2C9 inhibition; type: in vitro ADME
[5] = system: sodium, potassium, and calcium ion channels; assay: Electrophysiological activity in animals: ion channel inhibition
[6] = Electrophysiological activity in animals: atrial refractoriness, metabolite activity; type: in vivo; conditions: animals
[7] = 600 mg BID, Treatment Months 1-3, ITT
[8] = 600 mg BID, Treatment Months 1-3, mITT

Sequence of cytochrome P450 2C9 (CYP2C9) (P11712 whole entry): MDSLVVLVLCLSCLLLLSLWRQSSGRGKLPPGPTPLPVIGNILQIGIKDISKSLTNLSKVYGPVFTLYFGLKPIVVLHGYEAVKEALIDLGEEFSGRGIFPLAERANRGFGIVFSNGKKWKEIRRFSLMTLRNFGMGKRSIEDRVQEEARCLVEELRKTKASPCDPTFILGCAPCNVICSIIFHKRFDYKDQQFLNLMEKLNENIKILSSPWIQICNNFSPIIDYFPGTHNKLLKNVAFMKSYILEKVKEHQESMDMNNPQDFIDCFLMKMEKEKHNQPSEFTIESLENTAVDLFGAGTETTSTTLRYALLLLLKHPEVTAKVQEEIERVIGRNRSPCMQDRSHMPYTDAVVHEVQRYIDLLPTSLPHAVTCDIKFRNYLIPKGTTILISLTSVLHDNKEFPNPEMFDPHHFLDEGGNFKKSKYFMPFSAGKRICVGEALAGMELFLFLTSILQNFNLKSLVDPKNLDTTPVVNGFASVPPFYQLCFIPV

(S)-sec-butyl 2-(3-(4-(2-(diethylamino)ethoxy)-3,5-diiodobenzoyl)benzofuran-2-yl)acetate [ATI-2042]
mean trough level of ATI-2042 ([1]; 200 mg bid, steady state): 2.4 ± 0.9 ng/mL | mean trough level of ATI-2042 ([1]; 400 mg bid): 5.2 ± 1.7 ng/mL | mean trough level of ATI-2042 ([1]; 600 mg bid): 13.1 ± 5.6 ng/mL | mean trough level of ATI-2042 ([1]; 800 mg bid): 19.8 ± 17.9 ng/mL | trough level of ATI-2042 ([1]; washout): 0.3+0.4 ng/mL | decrease in AFB ([2]; 200 mg BID, mITT population, not statistically significant): 10% | median percent reduction from baseline in AT/AF burden ([2]; 400 mg BID, Treatment Months 1-3, ITT population): 54% | median percent reduction from baseline in AT/AF burden ([2]; 400 mg BID, Treatment Months 1-3, mITT population): 54% | AF episodes lasting 24 hours (FIG. 6) ([2]; 400 mg dose cohort): only a single 24 hour episode | patients with AF eradicated during the study period ([2]; 600 mg): More than half the patients had their AF eradicated | reduction of number and duration of AF episodes below baseline (FIG. 3) ([2]; 600 mg): about 70% | median percent reduction in AT/AF burden ([2]; 600 mg BID, Treatment Month 3, ITT population): 80% | median percent reduction in AT/AF burden ([2]; 600 mg BID, Treatment Month 3, mITT population): 83% | median percent change from baseline in duration of AT/AF episodes [2, 7]: −51.3% | median percent change from baseline in number of AT/AF episodes [2, 7]: −52.9% | median percent increase from baseline in duration of NSR [2, 7]: 208.8% | median percent reduction from baseline in AT/AF burden ([2]; 600 mg BID, Treatment Months 1-3, ITT population): 74% | median percent change from baseline in duration of AT/AF episodes [2, 8]: −51.3% | median percent change from baseline in number of AT/AF episodes [2, 8]: −62.1% | median percent increase from baseline in duration of NSR [2, 8]: 241.8% | median percent reduction from baseline in AT/AF burden ([2]; 600 mg BID, Treatment Months 1-3, mITT population): 75% | median percentage reduction in AFB ([2]; 600 mg BID, third month, paragraph refers to ITT population): 83% | AF episodes lasting 24 or more hours (FIG. 6) ([2]; 600 mg dose group): no patients experienced an AF episode lasting 24 or more hours | decrease in number of AT/AF episodes (median percent change from baseline, FIG. 3) ([2]; 600 mg, all three treatment months): more than 60% | median AF episode duration ([2]; 600 mg, month 3): 0 | decrease in duration of episodes (median percent change from baseline, FIG. 3) ([2]; 600 mg, treatment month 1): more than 50% | decrease in duration of episodes (median percent change from baseline, FIG. 3) ([2]; 600 mg, treatment month 2): more than 70% | decrease in duration of episodes (median percent change from baseline, FIG. 3) ([2]; 600 mg, treatment month 3): ~70% | mean episode duration (FIG. 4) ([2]; 600 mg, down from nearly 24): less than 1 hour | Patient GCI: patients a lot or completely satisfied with the test medication ([2]; ITT population, dose group not stated): 60.0% | Patient GCI: patients reporting a lot of improvement or complete relief ([2]; dose group not stated, ITT and mITT both named): 46.7% | AFB after one-month washout ([2]; each of the three dose groups): returned to essentially the baseline values | tolerability ([3]; 200, 400, 600 mg BID, up to 12 weeks): well tolerated | creatinine ([3]; BUN unchanged): reversible elevation | ALT ([3]; appeared dose related): mild, reversible increase | corneal deposits (slit-lamp examination) ([3]; end of treatment period): No patient treated with ATI-2042 developed corneal deposits | SAEs possibly related to drug ([3]; hematuria and high INR): Only one SAE was possibly related | amiodarone-like end-organ toxicity (pulmonary fibrosis, corneal deposits, neuropathy, photosensitivity) ([3]; in vivo): No evidence of amiodarone-like end-organ toxicity was seen | thyroid function changes ([3]; in vivo): mild and reversible | most frequent TEAEs ([3]; patients on concomitant warfarin): changes in INR values | CYP2C9 inhibition [4]: inhibitor; also recorded: inhibit CYP2C9 | inhibition of sodium, potassium, and calcium ion channels [5]: inhibition comparable with amiodarone | left and right atrial refractoriness [6]: increased left and right atrial refractoriness comparable with amiodarone
